For assay [1], the system named is female Sprague-Dawley rats augmented with excluded sigma. The assay is described as follows: Prevention of osteopenia after bladder augmentation plasty, bone density by DEXA. It counts as in vivo, rat. The conditions noted are these: daily s.c. ibandronic acid up to 20 μg P/kg, 4 months, monthly DEXA. From the text:
Preventive effect of diphosphonates before the occurrence of osteopenia after augmentation plasty. Groups of 12 female Sprague-Dawley rats (6-8 week old, about […] body weight) were provided with stomach and ileum augmentation plasties and 12 animals were dummy-operated. At the same time, 24 animals were augmented with excluded sigma and divided at random into two groups, one group daily receiving a subcutaneous application of 0.9% NaCl (control) and the other group a daily subcutaneous application of ibandronic acid in the form of an aqueous solution in a dose up to 20 μg P/kg. The operative configuration of the augmentation plasties was after Lauvetz et al (J. Urol. 154: 899-902, 1995). The test period was 4 months, corresponding to about 4 years of human life (E. Grimm, Amer. J. Dig Dis. 7: 17-20, 1962).

Assay [2] concerns rats with chronic kidney insufficiency and augmentation using gastrointestinal segments. The assay can be described thus: Chronic kidney insufficiency plus augmentation plasty, bone mass. It counts as in vivo, rat. The conditions noted are these: rats with CNI (5/6 nephrectomy) and augmentation plasty, ibandronate administration. From the text: In order to increase the clinical relevance of the results, the test procedure of Example 2 was repeated on rats with chronic kidney insufficiency. This test arrangement is based on a frequent situation among human beings in which a bladder previously damaged by an existing disturbance in urine transport (reflux or obstruction) leads to kidney insufficiency as a secondary result. It is known that kidney insufficiency in itself results in a disturbance in bone mineralisation (renal osteopathy), so that the need for a bladder extension plasty using segments of intestine further increases the risk of disturbed mineralisation. Kidney insufficiency was induced by 5/6 nephrectomy (compare Example 2). The other test procedure was as in Example 1.

The values below come from patent US6476008B1, “Use of diphosphonic acids or the physiologically acceptable salts or esters thereof in the preventive treatment of after-effects resulting from enlargement or replacement of the bladder” (Roche Diagnostics GmbH, priority 1997, dated 2002).

As for `CCCCCN(C)CCC(O)(P(=O)(O)O)P(=O)(O)O` [ibandronate, 1-hydroxy-3-(N-methyl-N-pentyl)aminopropylidene-1,1-diphosphonic acid], the “reduction in bone mass (DEXA bone density, lumbar vertebrae)” value in assay [1] is “no reduction in bone mass”. Further, in assay [2], the “reduction in bone mass” value is recorded as “reduction in bone mass was prevented”.
